In the NIST ThermoML archive (doi:10.1021/je049672l):
Numbers after ± are expanded uncertainties.

Details: for mass density: Vibrating tube method; for vapor or sublimation pressure: Closed cell (Static) method

With `CCC` [propane] the mass density (240 K, 527.3 kPa, Fluid (supercritical or subcritical phases)) was 570.78 ± 0.27 kg/m3, the mass density (240 K, 1044.8 kPa, Fluid (supercritical or subcritical phases)) was 571.46 ± 0.28 kg/m3 and the mass density (240 K, 1522.4 kPa, Fluid (supercritical or subcritical phases)) was 572.08 ± 0.29 kg/m3. For the same molecule, the mass density (240 K, 1978.3 kPa, Fluid (supercritical or subcritical phases)) was 572.68 ± 0.29 kg/m3, the mass density (240 K, 2477.9 kPa, Fluid (supercritical or subcritical phases)) was 573.32 ± 0.3 kg/m3 and the mass density (240 K, 2999.9 kPa, Fluid (supercritical or subcritical phases)) was 573.98 ± 0.3 kg/m3. For the same molecule, the mass density (240 K, 3513 kPa, Fluid (supercritical or subcritical phases)) was 574.62 ± 0.31 kg/m3, the mass density (240 K, 4045.7 kPa, Fluid (supercritical or subcritical phases)) was 575.29 ± 0.31 kg/m3 and the mass density (240 K, 4504.5 kPa, Fluid (supercritical or subcritical phases)) was 575.85 ± 0.32 kg/m3. It also gave a mass density (240 K, 4957.8 kPa, Fluid (supercritical or subcritical phases)) of 576.41 ± 0.32 kg/m3, a mass density (240 K, 5475.7 kPa, Fluid (supercritical or subcritical phases)) of 577.04 ± 0.33 kg/m3 and a mass density (240 K, 6018.3 kPa, Fluid (supercritical or subcritical phases)) of 577.69 ± 0.33 kg/m3. The mass density (240 K, 6523.2 kPa, Fluid (supercritical or subcritical phases)) was 578.3 ± 0.34 kg/m3, the mass density (240 K, 7043.3 kPa, Fluid (supercritical or subcritical phases)) was 578.91 ± 0.35 kg/m3 and the “vapor or sublimation pressure” value (240 K, Liquid) was 147.9 ± 0.6 kPa. It also gave a mass density (240 K, Liquid) of 570.28 ± 0.27 kg/m3, a mass density (250 K, 513.8 kPa, Fluid (supercritical or subcritical phases)) of 558.73 ± 0.28 kg/m3 and a mass density (250 K, 1008.1 kPa, Fluid (supercritical or subcritical phases)) of 559.47 ± 0.28 kg/m3. It also gave a mass density (250 K, 1508.3 kPa, Fluid (supercritical or subcritical phases)) of 560.2 ± 0.29 kg/m3, a mass density (250 K, 2008.3 kPa, Fluid (supercritical or subcritical phases)) of 560.93 ± 0.29 kg/m3 and a mass density (250 K, 2524.1 kPa, Fluid (supercritical or subcritical phases)) of 561.67 ± 0.3 kg/m3. The mass density (250 K, 3016.9 kPa, Fluid (supercritical or subcritical phases)) was 562.38 ± 0.3 kg/m3, the mass density (250 K, 3503.7 kPa, Fluid (supercritical or subcritical phases)) was 563.05 ± 0.31 kg/m3 and the mass density (250 K, 3993.1 kPa, Fluid (supercritical or subcritical phases)) was 563.74 ± 0.32 kg/m3. It also gave a mass density (250 K, 4478.5 kPa, Fluid (supercritical or subcritical phases)) of 564.4 ± 0.32 kg/m3, a mass density (250 K, 5045.1 kPa, Fluid (supercritical or subcritical phases)) of 565.17 ± 0.33 kg/m3 and a mass density (250 K, 5495.4 kPa, Fluid (supercritical or subcritical phases)) of 565.78 ± 0.33 kg/m3. The mass density (250 K, 5999.9 kPa, Fluid (supercritical or subcritical phases)) was 566.46 ± 0.34 kg/m3, the mass density (250 K, 6543.5 kPa, Fluid (supercritical or subcritical phases)) was 567.17 ± 0.35 kg/m3 and the mass density (250 K, 7010.3 kPa, Fluid (supercritical or subcritical phases)) was 567.78 ± 0.35 kg/m3. The “vapor or sublimation pressure” value (250 K, Liquid) was 217.7 ± 0.6 kPa, the mass density (250 K, Liquid) was 558.29 ± 0.27 kg/m3 and the mass density (260 K, 506.6 kPa, Fluid (supercritical or subcritical phases)) was 546.1 ± 0.28 kg/m3. The mass density (260 K, 1013.8 kPa, Fluid (supercritical or subcritical phases)) was 546.96 ± 0.29 kg/m3, the mass density (260 K, 1503.5 kPa, Fluid (supercritical or subcritical phases)) was 547.77 ± 0.29 kg/m3 and the mass density (260 K, 1999.7 kPa, Fluid (supercritical or subcritical phases)) was 548.6 ± 0.3 kg/m3. The mass density (260 K, 2504.5 kPa, Fluid (supercritical or subcritical phases)) was 549.42 ± 0.3 kg/m3, the mass density (260 K, 3012.1 kPa, Fluid (supercritical or subcritical phases)) was 550.24 ± 0.31 kg/m3 and the mass density (260 K, 3513.3 kPa, Fluid (supercritical or subcritical phases)) was 551.04 ± 0.31 kg/m3. It also gave a mass density (260 K, 4020 kPa, Fluid (supercritical or subcritical phases)) of 551.84 ± 0.32 kg/m3, a mass density (260 K, 4498.9 kPa, Fluid (supercritical or subcritical phases)) of 552.58 ± 0.33 kg/m3 and a mass density (260 K, 5014.5 kPa, Fluid (supercritical or subcritical phases)) of 553.38 ± 0.33 kg/m3. For the same molecule, the mass density (260 K, 5513.9 kPa, Fluid (supercritical or subcritical phases)) was 554.12 ± 0.34 kg/m3, the mass density (260 K, 6028.2 kPa, Fluid (supercritical or subcritical phases)) was 554.89 ± 0.34 kg/m3 and the mass density (260 K, 6522.8 kPa, Fluid (supercritical or subcritical phases)) was 555.62 ± 0.35 kg/m3. For the same molecule, the mass density (260 K, 7048.9 kPa, Fluid (supercritical or subcritical phases)) was 556.4 ± 0.36 kg/m3, the “vapor or sublimation pressure” value (260 K, Liquid) was 310.3 ± 0.7 kPa and the mass density (260 K, Liquid) was 545.77 ± 0.28 kg/m3. For the same molecule, the mass density (270 K, 504.7 kPa, Fluid (supercritical or subcritical phases)) was 532.93 ± 0.28 kg/m3, the mass density (270 K, 1012.9 kPa, Fluid (supercritical or subcritical phases)) was 533.91 ± 0.29 kg/m3 and the mass density (270 K, 1510.4 kPa, Fluid (supercritical or subcritical phases)) was 534.87 ± 0.3 kg/m3. The mass density (270 K, 2005.4 kPa, Fluid (supercritical or subcritical phases)) was 535.83 ± 0.3 kg/m3, the mass density (270 K, 2499.6 kPa, Fluid (supercritical or subcritical phases)) was 536.75 ± 0.31 kg/m3 and the mass density (270 K, 3017.5 kPa, Fluid (supercritical or subcritical phases)) was 537.7 ± 0.31 kg/m3. For the same molecule, the mass density (270 K, 3497.1 kPa, Fluid (supercritical or subcritical phases)) was 538.57 ± 0.32 kg/m3, the mass density (270 K, 4018.8 kPa, Fluid (supercritical or subcritical phases)) was 539.5 ± 0.33 kg/m3 and the mass density (270 K, 4488.2 kPa, Fluid (supercritical or subcritical phases)) was 540.32 ± 0.33 kg/m3. It also gave a mass density (270 K, 5023.8 kPa, Fluid (supercritical or subcritical phases)) of 541.26 ± 0.34 kg/m3, a mass density (270 K, 5504.7 kPa, Fluid (supercritical or subcritical phases)) of 542.05 ± 0.34 kg/m3 and a mass density (270 K, 6021.1 kPa, Fluid (supercritical or subcritical phases)) of 542.91 ± 0.35 kg/m3. For the same molecule, the mass density (270 K, 6525.8 kPa, Fluid (supercritical or subcritical phases)) was 543.74 ± 0.36 kg/m3, the mass density (270 K, 7024.1 kPa, Fluid (supercritical or subcritical phases)) was 544.55 ± 0.36 kg/m3 and the “vapor or sublimation pressure” value (270 K, Liquid) was 429.6 ± 0.8 kPa. The mass density (270 K, Liquid) was 532.67 ± 0.28 kg/m3, the mass density (280 K, 1000 kPa, Fluid (supercritical or subcritical phases)) was 520.1 ± 0.29 kg/m3 and the mass density (280 K, 1466.1 kPa, Fluid (supercritical or subcritical phases)) was 521.15 ± 0.3 kg/m3. For the same molecule, the mass density (280 K, 1964.2 kPa, Fluid (supercritical or subcritical phases)) was 522.28 ± 0.31 kg/m3, the mass density (280 K, 2513 kPa, Fluid (supercritical or subcritical phases)) was 523.49 ± 0.31 kg/m3 and the mass density (280 K, 3032.9 kPa, Fluid (supercritical or subcritical phases)) was 524.61 ± 0.32 kg/m3. It also gave a mass density (280 K, 3519.3 kPa, Fluid (supercritical or subcritical phases)) of 525.6 ± 0.32 kg/m3, a mass density (280 K, 4049.7 kPa, Fluid (supercritical or subcritical phases)) of 526.68 ± 0.33 kg/m3 and a mass density (280 K, 4527.5 kPa, Fluid (supercritical or subcritical phases)) of 527.65 ± 0.34 kg/m3. The mass density (280 K, 4963.1 kPa, Fluid (supercritical or subcritical phases)) was 528.5 ± 0.34 kg/m3, the mass density (280 K, 5443.4 kPa, Fluid (supercritical or subcritical phases)) was 529.45 ± 0.35 kg/m3 and the mass density (280 K, 5982.8 kPa, Fluid (supercritical or subcritical phases)) was 530.51 ± 0.36 kg/m3. It also gave a mass density (280 K, 6522.6 kPa, Fluid (supercritical or subcritical phases)) of 531.56 ± 0.36 kg/m3, a mass density (280 K, 7034.7 kPa, Fluid (supercritical or subcritical phases)) of 532.51 ± 0.37 kg/m3 and a mass density (290 K, 1499.4 kPa, Fluid (supercritical or subcritical phases)) of 506.71 ± 0.3 kg/m3. For the same molecule, the mass density (290 K, 2004.4 kPa, Fluid (supercritical or subcritical phases)) was 508.04 ± 0.31 kg/m3, the mass density (290 K, 2510 kPa, Fluid (supercritical or subcritical phases)) was 509.33 ± 0.32 kg/m3 and the mass density (290 K, 2998.9 kPa, Fluid (supercritical or subcritical phases)) was 510.56 ± 0.32 kg/m3. It also gave a mass density (290 K, 3484 kPa, Fluid (supercritical or subcritical phases)) of 511.74 ± 0.33 kg/m3, a mass density (290 K, 4018.1 kPa, Fluid (supercritical or subcritical phases)) of 513.03 ± 0.34 kg/m3 and a mass density (290 K, 4476.9 kPa, Fluid (supercritical or subcritical phases)) of 514.12 ± 0.34 kg/m3. For the same molecule, the mass density (290 K, 5036.3 kPa, Fluid (supercritical or subcritical phases)) was 515.41 ± 0.35 kg/m3, the mass density (290 K, 5531.4 kPa, Fluid (supercritical or subcritical phases)) was 516.52 ± 0.36 kg/m3 and the mass density (290 K, 5957.4 kPa, Fluid (supercritical or subcritical phases)) was 517.46 ± 0.36 kg/m3. The mass density (290 K, 6525.4 kPa, Fluid (supercritical or subcritical phases)) was 518.7 ± 0.37 kg/m3, the mass density (290 K, 7049.2 kPa, Fluid (supercritical or subcritical phases)) was 519.81 ± 0.38 kg/m3 and the “vapor or sublimation pressure” value (290 K, Liquid) was 768.6 ± 1.2 kPa. The mass density (290 K, Liquid) was 504.75 ± 0.29 kg/m3, the mass density (300 K, 1517.7 kPa, Fluid (supercritical or subcritical phases)) was 491.19 ± 0.3 kg/m3 and the mass density (300 K, 2015.2 kPa, Fluid (supercritical or subcritical phases)) was 492.77 ± 0.31 kg/m3. It also gave a mass density (300 K, 2519.2 kPa, Fluid (supercritical or subcritical phases)) of 494.32 ± 0.32 kg/m3, a mass density (300 K, 3032.3 kPa, Fluid (supercritical or subcritical phases)) of 495.86 ± 0.33 kg/m3 and a mass density (300 K, 3486.3 kPa, Fluid (supercritical or subcritical phases)) of 497.18 ± 0.33 kg/m3. It also gave a mass density (300 K, 4036.8 kPa, Fluid (supercritical or subcritical phases)) of 498.73 ± 0.34 kg/m3, a mass density (300 K, 4462.1 kPa, Fluid (supercritical or subcritical phases)) of 499.91 ± 0.35 kg/m3 and a mass density (300 K, 4937 kPa, Fluid (supercritical or subcritical phases)) of 501.23 ± 0.35 kg/m3. For the same molecule, the mass density (300 K, 5518.9 kPa, Fluid (supercritical or subcritical phases)) was 502.75 ± 0.36 kg/m3 and the mass density (300 K, 6063.5 kPa, Fluid (supercritical or subcritical phases)) was 504.2 ± 0.37 kg/m3.
